By melting point is commonly meant the temperature, or range, at which the solid turns liquid.

These results are taken from US7935711B2, “HIV inhibiting 2-(4-cyanophenylamino) pyrimidine oxide derivatives” (priority 2005, dated 2011).

Series [1] has as its system HIV strain B, mutation K103N in HIV reverse transcriptase. Put plainly: Antiviral spectrum, cellular assay, strain B. Type of series: cell-based. As to conditions: Human immunodeficiency virus 1, read-out: pEC50 B (converted). On the procedure:
(§1) Because of the increasing emergence of drug resistant HIV strains, the present compounds were tested for their potency against clinically isolated HIV strains harboring several mutations. These mutations are associated with resistance to reverse transcriptase inhibitors and result in viruses that show various degrees of phenotypic cross-resistance to the currently commercially available drugs such as for instance AZT and delavirdine.
(§2) The antiviral activity of the compound of the present invention is evaluated in the presence of wild type HIV and HIV mutants bearing mutations at the reverse transcriptase gene. The activity of the compounds is evaluated using a cellular assay and the residual activity is expressed in pEC50 values. The columns IIIB and A-G in the table list the pEC50 values against various strains IIIB, A-G.
Strain B contains mutation K103N in HIV reverse transcriptase, […]

Series [2] deals with HIV strain D, mutation Y188L and S162K in HIV reverse transcriptase. Put plainly: Antiviral spectrum, cellular assay, strain D. Type of series: cell-based. Conditions: Human immunodeficiency virus 1, read-out: pEC50 D (converted). The procedure: as §1, §2
Strain D contains mutation Y188L and S162K in HIV reverse transcriptase, […]

Series [3] concerns HIV strain A, mutation Y181C in HIV reverse transcriptase. Put plainly: Antiviral spectrum, cellular assay, strain A. Type of series: cell-based. As to conditions: Human immunodeficiency virus 1, read-out: pEC50 A (converted). The procedure:
as §1, §2
Strain A contains mutation Y181C in HIV reverse transcriptase, […]

Series [4] deals with HIV strain F, mutations K101E and K103N in HIV reverse transcriptase. Put plainly: Antiviral spectrum, cellular assay, strain F. Type of series: cell-based. Conditions: Human immunodeficiency virus 1, read-out: pEC50 F (converted). The procedure:
as §1, §2
Strain F contains mutations K101E and K103N in HIV reverse transcriptase.

In series [5] the test system is wild type HIV-LAI strain (IIIB). Briefly: Antiviral spectrum, cellular assay, strain IIIB. Type of series: cell-based. As to conditions: Human immunodeficiency virus 1. On the procedure: as §1, §2
Strain IIIB is wild type HIV-LAI strain;

Series [6] relates to HIV strain C, mutation L100I in HIV reverse transcriptase. Briefly: Antiviral spectrum, cellular assay, strain C. Type of series: cell-based. Conditions: Human immunodeficiency virus 1, read-out: pEC50 C (converted). On the procedure: as §1, §2
Strain C contains mutation L100I in HIV reverse transcriptase, […]

The test system of series [7] is HIV strain E, mutations L100I and K103N in HIV reverse transcriptase. Briefly: Antiviral spectrum, cellular assay, strain E. Type of series: cell-based. As to conditions: Human immunodeficiency virus 1, read-out: pEC50 E (converted). The procedure: as §1, §2
Strain E contains mutations L100I and K103N in HIV reverse transcriptase, […]

As for `Cc1cc(C#N)cc(C)c1Oc1nc(Nc2ccc(C#N)cc2)[n+]([O-])c(N)c1Br` [Compound 1], the melting point turned out to be 271 °C. The EC50 in series [1] is 1.41 nM. Also, the EC50 in series [2] was 0.603 nM. Besides, the EC50 in series [3] is 0.631 nM. Further, the EC50 in series [4] is 1.05 nM. Besides, in series [5], the EC50 was 0.575 nM. For the same compound, the EC50 in series [6] is 0.631 nM. In addition, the EC50 in series [7] is 1.07 nM.

On to `Cc1cc(C#N)cc(C)c1Oc1nc(Nc2ccc(C#N)cc2)nc(N)c1Br` [Compound A, 4-[[6-amino-5-bromo-2-[(4-cyanophenyl)amino]-4-pyrimidinyl]oxy]-3,5-dimethylbenzonitrile, reference compound], for which the EC50 is 1.78 nM in series [1]; 2.45 nM in series [2]; 10 nM in series [3]; 4.57 nM in series [4]; 2.82 nM in series [5]; 2.88 nM in series [6]. The EC50 in series [7] was 8.13 nM.
